Active and inactive are the calls of the source. The calls are words filed in the database; no cut-off is given here.
Columns and labels:
[1] = tested on: Mycobacterium tuberculosis; experiment: Inhibition of N-terminal hexahistidine-tagged recombinant Mycobacterium tuberculosis PtpB expressed in Escherichia coli BL21(DE3) using p-nitrophenylphosphate as substrate at 25 uM measured for 10 mins by ELISA plate spectrophotometric analysis relative to control
[2] = Competitive inhibition of N-terminal hexahistidine-tagged recombinant Mycobacterium tuberculosis PtpB expressed in Escherichia coli BL21(DE3) using p-nitrophenylphosphate as substrate measured for 10 mins by Lineweaver-Burk plot analysis
[3] = molecular target: T1, Tyrosine-protein phosphatase non-receptor type 1 (Homo sapiens, UniProt P18031); experiment: Inhibition of PTP1B (unknown origin) using p-nitrophenylphosphate as substrate measured for 10 mins by ELISA plate spectrophotometric analysis
T1 sequence (P18031 whole entry): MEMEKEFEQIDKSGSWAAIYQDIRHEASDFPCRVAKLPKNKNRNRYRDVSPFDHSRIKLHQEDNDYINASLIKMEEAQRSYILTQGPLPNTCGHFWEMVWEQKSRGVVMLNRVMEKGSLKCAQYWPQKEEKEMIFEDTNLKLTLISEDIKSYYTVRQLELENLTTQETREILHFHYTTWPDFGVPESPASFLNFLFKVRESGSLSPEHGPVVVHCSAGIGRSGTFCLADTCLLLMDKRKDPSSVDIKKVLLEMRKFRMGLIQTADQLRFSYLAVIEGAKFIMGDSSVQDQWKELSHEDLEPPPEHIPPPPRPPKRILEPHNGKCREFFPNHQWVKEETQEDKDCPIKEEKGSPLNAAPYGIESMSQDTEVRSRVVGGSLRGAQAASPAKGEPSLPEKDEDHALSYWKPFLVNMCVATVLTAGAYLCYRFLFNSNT

[4] = Inhibition of N-terminal hexahistidine-tagged recombinant Mycobacterium tuberculosis PtpB expressed in Escherichia coli BL21(DE3) using p-nitrophenylphosphate as substrate measured for 10 mins by ELISA plate spectrophotometric analysis

Structure (SMILES)	inhibition [1]	Ki [2] [µM]	IC50 [3] [µM]	IC50 [4] [µM]
O=C1C=CC(=O)N1c1ccccc1	27%	–	–	–
O=C1C2C3C=CC(O3)C2C(=O)N1c1ccc(S(=O)(=O)N/N=C/c2ccc([N+](=O)[O-])cc2)cc1 (stereo not drawn)	57%	15	245	41
CC12C=CC(O1)[C@@H]1C(=O)N(c3ccc(S(=O)(=O)N/N=C/c4ccc(Br)cc4)cc3)C(=O)[C@@H]12 (stereo partly drawn)	59%	9	88	39
CC12C=CC(O1)C1C(=O)N(c3ccc(S(=O)(=O)N/N=C/c4ccc(Cl)c(Cl)c4)cc3)C(=O)C12 (stereo not drawn)	34%	–	–	–
O=C1c2cccc3cccc(c23)C(=O)N1Cc1ccc(S(=O)(=O)N2CCOCC2)cc1	inactive	–	–	–
CC12C=CC(O1)C1C(=O)N(c3ccc(S(=O)(=O)N4CCOCC4)cc3)C(=O)C12 (stereo not drawn)	inactive	–	–	–
O=C1C2C3C=CC(O3)C2C(=O)N1c1ccc(S(=O)(=O)N2CCCC2)cc1 (stereo not drawn)	inactive	–	–	–
CC12C=CC(O1)C1C(=O)N(c3ccc(S(=O)(=O)N/N=C/c4ccc(Cl)cc4)cc3)C(=O)C12 (stereo not drawn)	59%	2.5	41	21
Cc1ccc(/C=N/NS(=O)(=O)c2ccc(N3C(=O)C4C5C=CC(C)(O5)C4C3=O)cc2)cc1 (stereo not drawn)	26%	–	–	–
O=C1C=CC(=O)N1c1ccc(S(=O)(=O)Cl)cc1	14%	–	–	–
CC12C=CC(O1)C1C(=O)N(c3ccc(S(=O)(=O)N4CCCC4)cc3)C(=O)C12 (stereo not drawn)	inactive	–	–	–
CC12C=CC(O1)C1C(=O)N(c3ccc(S(=O)(=O)N/N=C/c4ccc([N+](=O)[O-])cc4)cc3)C(=O)C12 (stereo not drawn)	32%	–	–	–
CC12C=CC(O1)C1C(=O)N(c3ccc(S(=O)(=O)N/N=C/c4ccccc4)cc3)C(=O)C12 (stereo not drawn)	59%	7	7	18
O=C1c2cccc3cccc(c23)C(=O)N1Cc1ccc(S(=O)(=O)N2CCCC2)cc1	inactive	–	–	–
O=C1c2cccc3c(Cl)ccc(c23)C(=O)N1Cc1ccc(S(=O)(=O)N2CCOCC2)cc1	inactive	–	–	–
COc1ccc(/C=N/NS(=O)(=O)c2ccc(N3C(=O)C4C5C=CC(C)(O5)C4C3=O)cc2)cc1 (stereo not drawn)	inactive	–	–	–

Source: ChEMBL document CHEMBL3217734, “Sulfonyl-hydrazones of cyclic imides derivatives as potent inhibitors of the Mycobacterium tuberculosis protein tyrosine phosphatase B (PtpB)” (Medchemcomm, 2011)
